Key:
[1] = system: obese diabetic patients; experiment: Oral Glucose Tolerance Test (OGTT) or standardized meal after a single dose; type: in vivo, human; conditions: overnight fasted patients
Method: Drug is delivered as an enema or suppositories made as described in^1 (containing 1 g of glutamine). 10 overnight fasted obese diabetic patients with impaired gut hormone effect^3 and/or impaired gut hormone secretion^4,5 are dosed rectally with one suppository (or enema). 30 minutes after drug administration, patients are subjected to Oral Glucose Tolerance Test (OGTT) or standardized meal. Blood is collected at the following time points: −30, 0, 5; 10, 15, 30, 60, 90, and 120 minutes. Blood is analyzed for levels of: glucose, insulin, GLP-1, PYY, other hormones and lipids. […] Drug is delivered as an enema or suppositories made as described in^1 (containing 2 g of butyric acid). 10 overnight fasted obese diabetic patients with impaired incretin effect^3 and/or impaired gut hormone secretion^4,5 are dosed rectally with one suppository (or enema). 30 minutes after drug administration, patients are subjected to Oral Glucose Tolerance Test (OGTT) or standardized meal. Blood is collected at the following time points: −30, 0, 5; 10, 15, 30, 60, 90, and 120 minutes. Blood is analyzed for levels of: glucose, insulin, GLP-1, PYY, other hormones and lipids. […] Tablets formulated with MMX technology (containing 1 g of glutamine) are made as described in^2. 10 overnight fasted obese diabetic patients with impaired gut hormone effect^3 and/or impaired gut hormone secretion^4,5 are dosed with one MMX tablet at 8:00 AM. 4 hrs after drug administration, patients are subjected to Oral Glucose Tolerance Test (OGTT) or standardized meal. Blood is collected at the following time points: −30, 0, 5; 10, 15, 30, 60, 90, and 120 minutes. Blood is analyzed for levels of: glucose, insulin, GLP-1, PYY, other hormones and lipids. […] Tablets formulated with MMX technology (containing 2 g of butyric acid) are made as described in^2. 10 overnight fasted obese diabetic patients with impaired gut hormone effect^3 and/or impaired gut hormone secretion^4,5 are dosed with one MMX tablet at 8:00 AM. 4 hrs after drug administration, patients are subjected to Oral Glucose Tolerance Test (OGTT) or standardized meal. Blood is collected at the following time points: −30, 0, 5; 10, 15, 30, 60, 90, and 120 minutes. Blood is analyzed for levels of: glucose, insulin, GLP-1, PYY, other hormones and lipids.

[2] = system: obese diabetic patients; experiment: Six-week once-daily MMX tablet treatment with OGTT or standardized meal; type: in vivo, human; conditions: one MMX tablet daily before first meal for six weeks
Method: Tablets formulated with MMX technology (containing 1 g of glutamine) are made as described in^2. 10 obese diabetic patients with impaired incretin effect^3 and/or impaired incretin secretion^4,5 are dosed with one MMX tablet at 8:00 AM before first meal for six (6) weeks. HbA1c, fasting glucose and insulin are measured before treatment and at 1, 2, and 6 weeks after initiation of the treatment. Additionally, patients are subjected at these times to Oral Glucose Tolerance Test (OGTT) or standardized meal. Blood is collected at the following time points: −30, 0, 5; 10, 15, 30, 60, 90, and 120 minutes. Blood is analyzed for levels of: glucose, insulin, GLP-1, PYY, other hormones and lipids. […] Tablets formulated with MMX technology (containing 2 g of butyric acid) are made as described in^2. 10 obese diabetic patients with impaired gut hormone effect^3 and/or impaired gut hormone secretion^4,5 are dosed with one MMX tablet at 8:00 AM before first meal for six (6) weeks. HbA1c, fasting glucose and insulin are measured before the treatment and at 1, 2, and 6 weeks after initiation of the treatment. Additionally, patients are subjected at these times to Oral Glucose Tolerance Test (OGTT) or standardized meal. Blood is collected at the following time points: −30, 0, 5; 10, 15, 30, 60, 90, and 120 min. Blood is analyzed for levels of: glucose, insulin, GLP-1, PYY, other hormones and lipids.

[3] = one MMX tablet orally, 4 hrs before OGTT or standardized meal
[4] = one MMX tablet orally, 4 hrs before standardized meal
[5] = one suppository or enema rectally, 30 minutes before OGTT or standardized meal
[6] = one suppository or enema rectally, 30 minutes before standardized meal

SMILES | Glucose levels [1, 3] | lipids levels (after standardized meal) [1, 4] | Glucose levels [1, 5] | lipids levels (after standardized meal) [1, 6] | Glucose levels [2] | triglycerides levels versus pre-treatment [2]
CCCC(=O)O [butyric acid] | decrease | decrease | decrease | decrease | decrease | lower than pre-treatment levels
NC(=O)CC[C@H](N)C(=O)O [glutamine] | decrease | decrease | decrease | decrease | decrease | lower than pre-treatment levels

Source: patent US9301938B2, “Composition and method for treatment of diabetes” (BioKier, Inc., priority 2009, dated 2016)
